Experimental data taken from patent publication US9474790B2, “Stable, protracted GLP-1/glucagon receptor co-agonists for medical use” (Novo Nordisk A/S, priority 2013, dated 2016).
Numbered stars: 1 amine (or outer) side, 2 acyl side, 3 side chain; on linkers, the order of the positions; unused ones are H or OH. Square brackets hold non-standard residues; d marks the D form. Side chains are listed from the residue outwards. Peptide text beside a SMILES is read from it. * marks the point of attachment. C18 diacid = O=C(O)CCCCCCCCCCCCCCCCC(=O)*; γGlu = O=C(O)[C@H](CCC(=O)[*:2])N[*:1]; AEEA = NCCOCCOCC(=O)O; Aib = CC(C)(N)C(=O)O

Test: Thioflavin T (ThT) fibrillation assay for physical stability
Assay type: physicochemical
Settings: 250 μM in 10 mM HEPES buffer, pH 7.5, 37° C., shaking 960 rpm
Summary of the method: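 Fibrillation was followed by ThT (1 μM) fluorescence every 20 min, 444/485 nm, for 250 μM peptide in 10 mM HEPES pH 7.5 shaken at 960 rpm, 37° C. Lag time (t0−2τ) and apparent rate constant (1/τ) come from a sigmoidal fit. Recovery is % of initial concentration remaining soluble after centrifugation and filtration (RP-HPLC).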
`CC(C)C[C@H](NC(=O)[C@H](Cc1ccc(O)cc1)NC(=O)[C@H](CCCCN)NC(=O)[C@H](CO)NC(=O)[C@H](CC(C)C)NC(=O)[C@H](CC(=O)O)NC(=O)[C@H](CO)NC(=O)[C@@H](NC(=O)[C@H](Cc1ccccc1)NC(=O)[C@@H](NC(=O)CNC(=O)[C@H](CCC(N)=O)NC(=O)C(C)(C)NC(=O)[C@@H](N)Cc1c[nH]cn1)[C@@H](C)O)[C@@H](C)O)C(=O)N[C@@H](CC(=O)O)C(=O)N[C@@H](CCCCNC(=O)CC[C@H](NC(=O)CC[C@H](NC(=O)COCCOCCNC(=O)COCCOCCNC(=O)CC[C@H](NC(=O)CCCCCCCCCCCCCCCCC(=O)O)C(=O)O)C(=O)O)C(=O)O)C(=O)N[C@@H](CCCNC(=N)N)C(=O)N[C@@H](CCCNC(=N)N)C(=O)N[C@@H](C)C(=O)N[C@@H](CCCNC(=N)N)C(=O)N[C@@H](CCC(=O)O)C(=O)N[C@@H](Cc1ccccc1)C(=O)N[C@H](C(=O)N[C@@H](CCC(N)=O)C(=O)N[C@@H](Cc1c[nH]c2ccccc12)C(=O)N[C@@H](CC(C)C)C(=O)N[C@@H](CC(C)C)C(=O)N[C@@H](CC(N)=O)C(=O)N[C@H](C(N)=O)[C@@H](C)O)C(C)C` [Example 10, N^ε16-[(4S)-4-carboxy-4-[[(4S)-4-carboxy-4-[[2-[2-[2-[[2-[2-[2-[[(4S)-4-carboxy-4-(17-carboxyheptadecanoylamino)butanoyl]amino]ethoxy]ethoxy]acetyl]amino]ethoxy]ethoxy]acetyl]amino]butanoyl]amino]butanoyl]-[Aib2,Leu10,Lys16,Arg20,Glu21,Leu27]-Glucagon amide] (H-H[Aib]QGTFTSDLSKYLDK([γGlu-γGlu-AEEA-AEEA-γGlu-C18 diacid])RRAREFVQWLLNT-NH2; N-terminus assumed) showed a THT assay Lag time (Ex. 76) of 7 h. For `CC(C)C[C@H](NC(=O)[C@H](Cc1c[nH]c2ccccc12)NC(=O)[C@H](C)NC(=O)[C@@H](NC(=O)[C@H](Cc1ccccc1)NC(=O)[C@H](CCC(=O)O)NC(=O)[C@H](CCCNC(=N)N)NC(=O)[C@H](C)NC(=O)[C@H](CCCNC(=N)N)NC(=O)[C@H](CCCNC(=N)N)NC(=O)[C@H](CCCCNC(=O)CC[C@H](NC(=O)COCCOCCNC(=O)COCCOCCNC(=O)CC[C@H](NC(=O)CC[C@H](NC(=O)CCCCCCCCCCCCCCCCC(=O)O)C(=O)O)C(=O)O)C(=O)O)NC(=O)[C@H](CC(=O)O)NC(=O)[C@H](CC(C)C)NC(=O)[C@H](Cc1ccc(O)cc1)NC(=O)[C@H](CCCCN)NC(=O)[C@H](CO)NC(=O)[C@H](CC(C)C)NC(=O)[C@H](CC(=O)O)NC(=O)[C@H](CO)NC(=O)[C@@H](NC(=O)[C@H](Cc1ccccc1)NC(=O)[C@@H](NC(=O)CNC(=O)[C@H](CCC(N)=O)NC(=O)C(C)(C)NC(=O)[C@@H](N)Cc1c[nH]cn1)[C@@H](C)O)[C@@H](C)O)C(C)C)C(=O)N[C@@H](CC(C)C)C(=O)N[C@@H](CC(N)=O)C(=O)N[C@H](C(N)=O)[C@@H](C)O` [Example 19, N^ε29-[(4S)-4-carboxy-4-[[2-[2-[2-[[2-[2-[2-[[(4S)-4-carboxy-4-[[(4S)-4-carboxy-4-(17-carboxyheptadecanoylamino)butanoyl]amino]butanoyl]amino]ethoxy]ethoxy]acetyl]amino]ethoxy]ethoxy]acetyl]amino]butanoyl]-[Aib2,Leu10,Lys16,Arg20,Glu21,Ala24,Leu27]-Glucagon amide] (H-H[Aib]QGTFTSDLSKYLDK([γGlu-AEEA-AEEA-γGlu-γGlu-C18 diacid])RRAREFVAWLLNT-NH2; N-terminus assumed), the THT assay Lag time (Ex. 76) was 6.7 h. Work on `CC(C)C[C@H](NC(=O)[C@H](Cc1ccc(O)cc1)NC(=O)[C@H](CCCCN)NC(=O)[C@H](CO)NC(=O)[C@H](CC(C)C)NC(=O)[C@H](CC(=O)O)NC(=O)[C@H](CO)NC(=O)[C@@H](NC(=O)[C@H](Cc1ccccc1)NC(=O)[C@@H](NC(=O)CNC(=O)[C@H](CCC(N)=O)NC(=O)C(C)(C)NC(=O)[C@@H](N)Cc1c[nH]cn1)[C@@H](C)O)[C@@H](C)O)C(=O)N[C@@H](CCC(=O)O)C(=O)N[C@@H](CO)C(=O)N[C@@H](CCCNC(=N)N)C(=O)N[C@@H](CCCNC(=N)N)C(=O)N[C@@H](C)C(=O)N[C@@H](CCCNC(=N)N)C(=O)N[C@@H](CCC(=O)O)C(=O)N[C@@H](Cc1ccccc1)C(=O)N[C@H](C(=O)N[C@@H](CCC(N)=O)C(=O)N[C@@H](Cc1c[nH]c2ccccc12)C(=O)N[C@@H](CC(C)C)C(=O)N[C@@H](CC(C)C)C(=O)N[C@@H](CCCCNC(=O)CC[C@H](NC(=O)COCCOCCNC(=O)COCCOCCNC(=O)CC[C@H](NC(=O)CC[C@H](NC(=O)CCCCCCCCCCCCCCCCC(=O)O)C(=O)O)C(=O)O)C(=O)O)C(=O)N[C@H](C(N)=O)[C@@H](C)O)C(C)C` [Example 20, N^ε29-[(4S)-4-carboxy-4-[[2-[2-[2-[[2-[2-[2-[[(4S)-4-carboxy-4-[[(4S)-4-carboxy-4-(17-carboxyheptadecanoylamino)butanoyl]amino]butanoyl]amino]ethoxy]ethoxy]acetyl]amino]ethoxy]ethoxy]acetyl]amino]butanoyl]-[Aib2,Leu10,Glu15,Arg20,Glu21,Leu27,Lys28]-Glucagon amide] (H-H[Aib]QGTFTSDLSKYLESRRAREFVQWLLK([γGlu-AEEA-AEEA-γGlu-γGlu-C18 diacid])T-NH2; N-terminus assumed) yielded a THT assay Lag time (Ex. 76) of 6 h. Work on `CC(C)C[C@H](NC(=O)[C@H](CC(C)C)NC(=O)[C@H](Cc1c[nH]c2ccccc12)NC(=O)[C@H](CCC(N)=O)NC(=O)[C@@H](NC(=O)[C@H](Cc1ccccc1)NC(=O)[C@H](CCC(=O)O)NC(=O)[C@H](CCCNC(=N)N)NC(=O)[C@H](C)NC(=O)[C@H](CCCNC(=N)N)NC(=O)[C@H](CCCNC(=N)N)NC(=O)[C@H](CO)NC(=O)[C@H](CCC(=O)O)NC(=O)[C@H](CC(C)C)NC(=O)[C@H](Cc1ccc(O)cc1)NC(=O)[C@H](CCCCN)NC(=O)[C@H](CO)NC(=O)[C@H](CC(C)C)NC(=O)[C@H](CC(=O)O)NC(=O)[C@H](CO)NC(=O)[C@@H](NC(=O)[C@H](Cc1ccccc1)NC(=O)[C@@H](NC(=O)CNC(=O)[C@H](CCC(N)=O)NC(=O)C(C)(C)NC(=O)[C@@H](N)Cc1c[nH]cn1)[C@@H](C)O)[C@@H](C)O)C(C)C)C(=O)N[C@@H](CC(N)=O)C(=O)N[C@@H](CCCCNC(=O)CC[C@H](NC(=O)COCCOCCNC(=O)COCCOCCNC(=O)CC[C@H](NC(=O)CC[C@H](NC(=O)CCCCCCCCCCCCCCCCC(=O)O)C(=O)O)C(=O)O)C(=O)O)C(N)=O` [Example 21, N^ε29-[(4S)-4-carboxy-4-[[2-[2-[2-[[2-[2-[2-[[(4S)-4-carboxy-4-[[(4S)-4-carboxy-4-(17-carboxyheptadecanoylamino)butanoyl]amino]butanoyl]amino]ethoxy]ethoxy]acetyl]amino]ethoxy]ethoxy]acetyl]amino]butanoyl]-[Aib2,Leu10,Glu15,Arg20,Glu21,Leu27,Lys29]-Glucagon amide] (H-H[Aib]QGTFTSDLSKYLESRRAREFVQWLLNK([γGlu-AEEA-AEEA-γGlu-γGlu-C18 diacid])-NH2; N-terminus assumed) yielded a THT assay Lag time (Ex. 76) of 18 h. `CC(C)C[C@H](NC(=O)[C@H](Cc1ccc(O)cc1)NC(=O)[C@H](CCCCN)NC(=O)[C@H](CO)NC(=O)[C@H](CC(C)C)NC(=O)[C@H](CC(=O)O)NC(=O)[C@H](CO)NC(=O)[C@@H](NC(=O)[C@H](Cc1ccccc1)NC(=O)[C@@H](NC(=O)CNC(=O)[C@H](Cc1c[nH]cn1)NC(=O)C(C)(C)NC(=O)[C@@H](N)Cc1c[nH]cn1)[C@@H](C)O)[C@@H](C)O)C(=O)N[C@@H](CCC(=O)O)C(=O)N[C@@H](CO)C(=O)N[C@@H](CCCNC(=N)N)C(=O)N[C@@H](CCCNC(=N)N)C(=O)N[C@@H](C)C(=O)N[C@@H](CCCNC(=N)N)C(=O)N[C@@H](CCC(=O)O)C(=O)N[C@@H](Cc1ccccc1)C(=O)N[C@H](C(=O)N[C@@H](CCC(N)=O)C(=O)N[C@@H](Cc1c[nH]c2ccccc12)C(=O)N[C@@H](CC(C)C)C(=O)N[C@@H](CC(C)C)C(=O)N[C@@H](CCCCNC(=O)CC[C@H](NC(=O)COCCOCCNC(=O)COCCOCCNC(=O)CC[C@H](NC(=O)CC[C@H](NC(=O)CCCCCCCCCCCCCCCCC(=O)O)C(=O)O)C(=O)O)C(=O)O)C(=O)N[C@H](C(N)=O)[C@@H](C)O)C(C)C` [Example 30, N^ε28-[(4S)-4-carboxy-4-[[2-[2-[2-[[2-[2-[2-[[(4S)-4-carboxy-4-[[(4S)-4-carboxy-4-(17-carboxyheptadecanoylamino)butanoyl]amino]butanoyl]amino]ethoxy]ethoxy]acetyl]amino]ethoxy]ethoxy]acetyl]amino]butanoyl]-[Aib2,His3,Leu10,Glu15,Arg20,Glu21,Leu27,Lys28]-Glucagon amide] (H-H[Aib]HGTFTSDLSKYLESRRAREFVQWLLK([γGlu-AEEA-AEEA-γGlu-γGlu-C18 diacid])T-NH2; N-terminus assumed) showed a THT assay Lag time (Ex. 76) of 45 h. Molecule `CC(C)C[C@H](NC(=O)[C@H](Cc1c[nH]c2ccccc12)NC(=O)[C@H](C)NC(=O)[C@@H](NC(=O)[C@H](Cc1ccccc1)NC(=O)[C@H](CCC(=O)O)NC(=O)[C@H](CCCNC(=N)N)NC(=O)[C@H](C)NC(=O)[C@H](CCCNC(=N)N)NC(=O)[C@H](CCCNC(=N)N)NC(=O)[C@H](CO)NC(=O)[C@H](CCC(=O)O)NC(=O)[C@H](CC(C)C)NC(=O)[C@H](Cc1ccc(O)cc1)NC(=O)[C@H](CCCCN)NC(=O)[C@H](CO)NC(=O)[C@H](CC(C)C)NC(=O)[C@H](CC(=O)O)NC(=O)[C@H](CO)NC(=O)[C@@H](NC(=O)[C@H](Cc1ccccc1)NC(=O)[C@@H](NC(=O)CNC(=O)[C@H](Cc1c[nH]cn1)NC(=O)C(C)(C)NC(=O)[C@@H](N)Cc1c[nH]cn1)[C@@H](C)O)[C@@H](C)O)C(C)C)C(=O)N[C@@H](CC(C)C)C(=O)N[C@@H](CCCCNC(=O)CC[C@H](NC(=O)COCCOCCNC(=O)COCCOCCNC(=O)CC[C@H](NC(=O)CC[C@H](NC(=O)CCCCCCCCCCCCCCCCC(=O)O)C(=O)O)C(=O)O)C(=O)O)C(=O)N[C@H](C(N)=O)[C@@H](C)O` [Example 31, N^ε28-[(4S)-4-carboxy-4-[[2-[2-[2-[[2-[2-[2-[[(4S)-4-carboxy-4-[[(4S)-4-carboxy-4-(17-carboxyheptadecanoylamino)butanoyl]amino]butanoyl]amino]ethoxy]ethoxy]acetyl]amino]ethoxy]ethoxy]acetyl]amino]butanoyl]-[Aib2,His3,Leu10,Glu15,Arg20,Glu21,Ala24,Leu27, Lys28]-Glucagon amide] (H-H[Aib]HGTFTSDLSKYLESRRAREFVAWLLK([γGlu-AEEA-AEEA-γGlu-γGlu-C18 diacid])T-NH2; N-terminus assumed) has a THT assay Lag time (Ex. 76) of 45 h.
